Measured values as given in PubChem BioAssay AID264 (DTP/NCI, 2004).
Where “and” joins values, the source holds several entries; their conditions need not be identical. Identical values can stand only once. Results filed as inconclusive are left out.

Test system: nude mice, LX-1 lung xenograft intrarenal, tumor weight T/C
Test: NCI In Vivo Anticancer Drug Screen. Data for tumor model Human Lung LX-1 Xenograft (intrarenal inoculation) in NU/NU Swiss (nude) mice
Details: endpoint: mean tumor weight change, higher = larger tumour
Method in brief: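 Readout: T/C, i.e. treated-group tumor measurement over vehicle-control measurement. Mice bearing transplantable tumors were dosed with compound or vehicle.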

[1] = dose: 300.0 mg/kg/injection, schedule: Q04DX003 (sc), vehicle: saline
[2] = dose: 75.0 mg/kg/injection, schedule: Q04DX003 (sc), vehicle: saline
[3] = dose: 150.0 mg/kg/injection, schedule: Q04DX003 (sc), vehicle: saline
[4] = dose: 50.0 mg/kg/injection, schedule: Q01DX010 (sc), vehicle: Klucel (hydroxypropylcellulose) (HPC)
[5] = dose: 200.0 mg/kg/injection, schedule: Q01DX010 (sc), vehicle: Klucel (hydroxypropylcellulose) (HPC)
[6] = dose: 50.0 mg/kg/injection, schedule: Q04DX003 (sc), vehicle: saline with Tween-80
[7] = dose: 100.0 mg/kg/injection, schedule: Q04DX003 (sc), vehicle: saline with Tween-80
[8] = dose: 200.0 mg/kg/injection, schedule: Q04DX003 (sc), vehicle: saline with Tween-80
[9] = dose: 400.0 mg/kg/injection, schedule: Q04DX003 (sc), vehicle: saline with Tween-80

O=C1N[C@@H]2C(=C[C@H](O)[C@@H](O)[C@H]2O)c2cc3c(c(O)c21)OCO3
T/C (dose: 2.5 mg/kg/injection, schedule: Q04DX003 (sc), vehicle: saline with Tween-80): 97 % of control
T/C (dose: 5.0 mg/kg/injection, schedule: Q04DX003 (sc), vehicle: saline with Tween-80): 109 % of control

O=C(O)C1CC(c2ccccc2)=NN1c1ccccc1 (centres undefined)
T/C (dose: 150.0 mg/kg/injection, schedule: Q04DX003 (sc), vehicle: water): 105 % of control

CN(C)[C@@H]1C(=O)C(C(N)=O)=C(O)[C@@]2(O)C(=O)C3=C(O)c4c(O)ccc(Cl)c4[C@@](C)(O)[C@H]3C[C@@H]12
T/C [1]: 81 % of control
T/C (dose: 600.0 mg/kg/injection, schedule: Q04DX003 (sc), vehicle: saline): 200 % of control
T/C (dose: 1200.0 mg/kg/injection, schedule: Q04DX003 (sc), vehicle: saline): 220 % of control

CCCCCCCCCCCCCCCCP(=O)(OCCOCCCCCC)OCCOCCCCCC
T/C [2]: 114 % of control
T/C [3]: 91 % of control
T/C [1]: 92 % of control

COc1cccc2c1C(=O)c1c(O)c3c(c(O)c1C2=O)C[C@@](O)(/C(C)=N/NC(=O)c1ccc(Cl)cc1)C[C@@H]3OC1CC(N)C(O)C(C)O1 (some centres undefined)
T/C (dose: 4.0 mg/kg/injection, schedule: Q01DX010 (sc), vehicle: water): 156 % of control
T/C (dose: 6.0 mg/kg/injection, schedule: Q04DX003 (sc), vehicle: water): 64 % of control
T/C (dose: 8.0 mg/kg/injection, schedule: Q01DX010 (sc), vehicle: water): 42 % of control
T/C (dose: 16.0 mg/kg/injection, schedule: Q01DX010 (sc), vehicle: water): 43 % of control
T/C (dose: 96.0 mg/kg/injection, schedule: Q04DX003 (sc), vehicle: water): 20 % of control and 33 % of control

O=C([CH-]C(=O)C(F)(F)F)c1ccccc1.O=C([CH-]C(=O)C(F)(F)F)c1ccccc1.O=C([CH-]C(=O)C(F)(F)F)c1ccccc1.O=C([CH-]C(=O)C(F)(F)F)c1ccccc1.[Eu+3].c1ccncc1
T/C [4]: 85 % of control
T/C [5]: 49 % of control
T/C (dose: 400.0 mg/kg/injection, schedule: Q01DX010 (sc), vehicle: Klucel (hydroxypropylcellulose) (HPC)): 40 % of control
T/C (dose: 800.0 mg/kg/injection, schedule: Q01DX010 (sc), vehicle: Klucel (hydroxypropylcellulose) (HPC)): 65 % of control

COc1cccc2c1C(=O)c1c(O)c3c(c(O)c1C2=O)C[C@@](O)(C(=O)COC(=O)c1cccnc1)C[C@@H]3OC1CC(N)C(O)C(C)O1 (some centres undefined)
T/C (dose: 3.0 mg/kg/injection, schedule: Q04DX003 (sc), vehicle: saline): 120 % of control
T/C (dose: 12.0 mg/kg/injection, schedule: Q04DX003 (sc), vehicle: saline): 75 % of control
T/C (dose: 24.0 mg/kg/injection, schedule: Q04DX003 (sc), vehicle: saline): 83 % of control

O=C1C=C(C2OC(CO)C(O)C2O)C(=O)N1 (centres undefined)
T/C (dose: 6.25 mg/kg/injection, schedule: Q01DX010 (sc), vehicle: saline): 37 % of control
T/C (dose: 12.5 mg/kg/injection, schedule: Q01DX010 (sc), vehicle: saline): 46 % of control
T/C (dose: 25.0 mg/kg/injection, schedule: Q01DX010 (sc), vehicle: saline): 66 % of control

CN=C(N)N/N=C(\c1ccccc1)c1ccc(Br)cc1
T/C (dose: 12.5 mg/kg/injection, schedule: Q04DX003 (sc), vehicle: saline with Tween-80): 88 % of control
T/C (dose: 25.0 mg/kg/injection, schedule: Q04DX003 (sc), vehicle: saline with Tween-80): 122 % of control
T/C [6]: 103 % of control

CCN1/C(=C/C=C/C=C/c2sc3ccccc3[n+]2CC)Sc2ccccc21
T/C (dose: 1.5 mg/kg/injection, schedule: Q04DX003 (sc), vehicle: saline): 57 % of control

Nc1cc2c3c(cccc3c1)C(=O)N(CCN1CCCC1)C2=O
T/C [6]: 42 % of control
T/C [7]: 79 % of control
T/C [8]: 108 % of control
T/C [9]: 46 % of control

O=C1NC(c2ccccc2)N=C2Oc3ccccc3C=C12 (centres undefined)
T/C (dose: 12.5 mg/kg/injection, schedule: Q01DX010 (sc), vehicle: saline with Tween-80): 186 % of control
T/C (dose: 25.0 mg/kg/injection, schedule: Q01DX010 (sc), vehicle: saline with Tween-80): 123 % of control
T/C (dose: 50.0 mg/kg/injection, schedule: Q01DX010 (sc), vehicle: saline with Tween-80): 85 % of control
T/C (dose: 100.0 mg/kg/injection, schedule: Q01DX010 (sc), vehicle: saline with Tween-80): 105 % of control
T/C (dose: 200.0 mg/kg/injection, schedule: Q01DX010 (sc), vehicle: saline with Tween-80): 58 % of control

OCC12COCN1COC2
T/C [2]: 102 % of control
T/C [3]: 115 % of control

C1OCN2CSCC12 (centres undefined)
T/C [6]: 76 % of control
T/C [7]: 103 % of control
T/C [8]: 71 % of control
T/C [9]: 63 % of control

F[B-](F)(F)F
T/C (dose: 300.0 mg/kg/injection, schedule: Q04DX003 (sc), vehicle: gum acacia): 103 % of control
T/C (dose: 600.0 mg/kg/injection, schedule: Q04DX003 (sc), vehicle: gum acacia): 101 % of control
T/C (dose: 1200.0 mg/kg/injection, schedule: Q04DX003 (sc), vehicle: gum acacia): 84 % of control

O.O.[NH-]C1CCCCC1[NH-].[Pt+2] (centres undefined)
T/C (dose: 5.0 mg/kg/injection, schedule: Q01DX010 (sc), vehicle: dextrose): 68 % of control
T/C (dose: 10.0 mg/kg/injection, schedule: Q01DX010 (sc), vehicle: dextrose): 74 % of control
T/C (dose: 20.0 mg/kg/injection, schedule: Q01DX010 (sc), vehicle: dextrose): 57 % of control

C/C(=C\c1ccccc1)[N+](=O)[O-]
T/C (dose: 6.25 mg/kg/injection, schedule: Q01DX010 (sc), vehicle: Klucel (hydroxypropylcellulose) (HPC)): 60 % of control
T/C (dose: 12.5 mg/kg/injection, schedule: Q01DX010 (sc), vehicle: Klucel (hydroxypropylcellulose) (HPC)): 56 % of control
T/C (dose: 100.0 mg/kg/injection, schedule: Q01DX010 (sc), vehicle: Klucel (hydroxypropylcellulose) (HPC)): 159 % of control
T/C [5]: 196 % of control

C[C@H]1C[C@@H]2[C@H]([C@@H](O)C[C@@]3(C)[C@H]2CC[C@]3(O)C(=O)CO)[C@@]2(C)C=CC(=O)C=C12
T/C (dose: 200.0 mg/kg/injection, schedule: Q04DX003 (sc), vehicle: Klucel (hydroxypropylcellulose) (HPC)): 76 % of control
T/C (dose: 400.0 mg/kg/injection, schedule: Q04DX003 (sc), vehicle: Klucel (hydroxypropylcellulose) (HPC)): 58 % of control
T/C (dose: 800.0 mg/kg/injection, schedule: Q04DX003 (sc), vehicle: Klucel (hydroxypropylcellulose) (HPC)): 59 % of control

COc1cc2c(c(OC)c1OC)-c1ccc(OC)c(=O)cc1[C@@H](NC(C)=O)CC2
T/C (dose: 0.25 mg/kg/injection, schedule: Q01DX010 (sc), vehicle: saline): 87 % of control
T/C (dose: 0.5 mg/kg/injection, schedule: Q01DX010 (sc), vehicle: saline): 50 % of control

COC1=C2C[C@@H](C)C[C@@H](OC)[C@@H](O)[C@H](C)/C=C(\C)[C@@H](OC(N)=O)[C@H](OC)/C=C\C=C(/C)C(=O)NC(=CC1=O)C2=O
T/C (dose: 1.0 mg/kg/injection, schedule: Q04DX003 (sc), vehicle: saline): 77 % of control
T/C (dose: 2.0 mg/kg/injection, schedule: Q04DX003 (sc), vehicle: saline): 57 % of control
T/C (dose: 4.0 mg/kg/injection, schedule: Q04DX003 (sc), vehicle: saline): 104 % of control
T/C (dose: 8.0 mg/kg/injection, schedule: Q04DX003 (sc), vehicle: saline): 81 % of control

CCOC(=O)C1=C(C#N)C2(CCC(OCc3ccccc3)CC2)C(=O)O1 (centres undefined)
T/C (dose: 300.0 mg/kg/injection, schedule: Q04DX003 (sc), vehicle: suspension in saline): 106 % of control
T/C (dose: 600.0 mg/kg/injection, schedule: Q04DX003 (sc), vehicle: suspension in saline): 111 % of control
T/C (dose: 1200.0 mg/kg/injection, schedule: Q04DX003 (sc), vehicle: suspension in saline): 77 % of control

CCN(CC)CCC(=O)c1ccccc1
T/C (dose: 150.0 mg/kg/injection, schedule: Q04DX003 (sc), vehicle: saline with Tween-80): 81 % of control

NC(CSC(c1ccccc1)(c1ccccc1)c1ccccc1)C(=O)O (centres undefined)
T/C (dose: 25.0 mg/kg/injection, schedule: Q01DX010 (sc), vehicle: Klucel (hydroxypropylcellulose) (HPC)): 86 % of control
T/C [4]: 155 % of control

O=C(O)CSc1nc(-c2ccccc2)c(-c2ccccc2)n1-c1ccccn1
T/C (dose: 50.0 mg/kg/injection, schedule: Q01DX010 (sc), vehicle: water): 94 % of control
T/C (dose: 100.0 mg/kg/injection, schedule: Q01DX010 (sc), vehicle: water): 60 % of control

O=c1[nH]cnc2n[nH]nc12
T/C (dose: 300.0 mg/kg/injection, schedule: Q04DX003 (sc), vehicle: Klucel (hydroxypropylcellulose) (HPC)): 100 % of control
T/C (dose: 600.0 mg/kg/injection, schedule: Q04DX003 (sc), vehicle: Klucel (hydroxypropylcellulose) (HPC)): 92 % of control
T/C (dose: 1200.0 mg/kg/injection, schedule: Q04DX003 (sc), vehicle: Klucel (hydroxypropylcellulose) (HPC)): 35 % of control
T/C (dose: 2400.0 mg/kg/injection, schedule: Q04DX003 (sc), vehicle: Klucel (hydroxypropylcellulose) (HPC)): 27 % of control
